Laboratory results reported in patent publication US20090068255A1, “USE OF MATRIX METALLOPROTEINASE INHIBITORS IN SKIN CARE” (priority 2007, published 2009).
Entries after “also recorded” stand apart in the source; their conditions may differ.

What was measured:
[1] = system: female subjects 40-65 years of age with mild to moderate skin aging; test: Profilometry of silicone replicas of the crow's feet area in the 16-week clinical study; format: in vivo, human; settings: replicas at day 0, week 8, week 16, p<0.05
Procedure: (§1) The effect of the MMP inhibitor on the subject's skin was assessed using the Physician Global Assessment of facial skin appearance and the assessment of the following individual skin appearance parameters on a scale from 0 to 9: fine wrinkling, mottled hyperpigmentation, age spots, tactile roughness, coarse wrinkling, telangiectasia, pore size, sallow tone, and sag. The cosmetic appearance of telangiectasia may be perceived as increased facial redness. Other criteria were also used including profilometry of crow's feet region using silicone replicas.
Silicone replicas of the crow's feet area (“profilometry”) were made at day 0, week 8, and week 16.
For the silicone replicas, the data used in the statistical analyses was the change from baseline. Within-treatment analysis of the skin replica parameters changes from baseline were evaluated using Student's t-test for paired data. Between-treatment analyses were conducted utilizing analysis of covariance with the baseline value as the covariate.

[2] = system: female subjects 40-65 years of age with mild to moderate skin aging; test: Double-blind, placebo-controlled, randomized 16-week clinical study; dermatologist assessment of individual facial skin appearance parameters (scale 0-9); format: in vivo, human; settings: 16 weeks
Procedure: Photoaging of the skin typically manifests itself as worsening appearance of the skin, including an increased appearance of mottled hyperpigmentation, wrinkles, coarseness of skin, redness, and pores. In this study, the MMP inhibitor,
was evaluated in female subjects 40-65 years of age with mild to moderate skin aging to determine its benefit on the appearance of aging.
The study was designed as a double-blind, placebo-controlled, randomized 16-week clinical study to evaluate the benefit of the MMP inhibitor,
in reducing the appearance of aging. Subjects enrolled in the study were between 40-65 years of age with mild to moderate skin age scores. A randomization table was used to determine which subjects would receive the study cream and which would receive the placebo cream. Subjects were instructed to apply the assigned cream to their face twice a day (once in the morning and once in the evening) after their face was washed and dried. A pea-sized drop of the test article was applied to each quadrant of the face to form a thin layer over the entire face. Follow-up visits were scheduled at 2, 4, 8, 12, and 16 weeks after the cream application was started.
Subjects were instructed to apply the test or placebo cream to the face twice daily (once in the morning and once in the evening) over the entire 16 week study period. […]
as §1, with “The cosmetic appearance of telangiectasia may be perceived as increased facial redness. Other criteria were also used including profilometry of crow's feet region using silicone replicas.” left out
A Physician Global Assessment of facial skin appearance using the Griffiths scale (0-8) was performed at all study visits. […] An assessment of individual skin parameters including fine wrinkling, mottled hyperpigmentation, age spots, tactile roughness, coarse wrinkling, redness, pore size, sollowness, and sag was scored on a scale from 0-9 at all study visits based on the following table: […]

## O=C(NCc1ccc(-c2ccccc2)cc1)c1occc(=O)c1O [MMP inhibitor]
[1]
  coarse wrinkle depth and roughness by profilometry of silicone replica, treatment vs placebo group: significant improvement; also recorded: consistent with the improvement of coarse wrinkle scores
[2]; cream of Example 27 (0.20% MMP inhibitor) applied to the face twice daily, p<0.05 vs placebo
  appearance of telangiectasia (redness), change from baseline relative to the placebo formulation: reduce the appearance of telangiectasia
[2]; cream of Example 27 applied to the face twice daily, Proc GLM time x treatment interaction p-value 0.02
  appearance of pore size, active vs placebo group: improved appearance; also recorded: trending toward improvement
[2]; cream of Example 27 applied to the face twice daily, Proc GLM time x treatment interaction p-value 0.06
  appearance of coarse wrinkles, active vs placebo group: improved appearance of coarse wrinkles; also recorded: trending toward improvement
